Measurements published in PubChem BioAssay AID330 (DTP/NCI, 2004).
“And” between values parts separate entries of the source, which are not always exact repeats. Identical values can stand only once. Inconclusive results and toxic doses are left out.

Test system: P388 leukemia ip, CD2F1 mice, survival T/C
Assay: NCI In Vivo Anticancer Drug Screen. Data for tumor model P388 Leukemia (intraperitoneal) in CD2F1 (CDF1) mice
Conditions: endpoint: median survival time, higher = longer survival
How it was run: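 Mice carrying the transplanted tumor received test compound or vehicle. Survival was recorded in each group, and the value is the treated-group measurement divided by that of the vehicle-treated control group.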

[1] = dose: 60.0 mg/kg/injection, schedule: Q01DX005 (ip), vehicle: saline with Tween-80
[2] = dose: 120.0 mg/kg/injection, schedule: Q01DX005 (ip), vehicle: saline with Tween-80
[3] = dose: 240.0 mg/kg/injection, schedule: Q01DX005 (ip), vehicle: saline with Tween-80
[4] = dose: 50.0 mg/kg/injection, schedule: Q01DX009 (ip), vehicle: Klucel (hydroxypropylcellulose) (HPC)
[5] = dose: 100.0 mg/kg/injection, schedule: Q01DX009 (ip), vehicle: Klucel (hydroxypropylcellulose) (HPC)
[6] = dose: 200.0 mg/kg/injection, schedule: Q01DX009 (ip), vehicle: Klucel (hydroxypropylcellulose) (HPC)
[7] = dose: 100.0 mg/kg/injection, schedule: Q01DX001 (ip), vehicle: Klucel (hydroxypropylcellulose) (HPC)
[8] = dose: 200.0 mg/kg/injection, schedule: Q01DX001 (ip), vehicle: Klucel (hydroxypropylcellulose) (HPC)
[9] = dose: 25.0 mg/kg/injection, schedule: Q01DX009 (ip), vehicle: Klucel (hydroxypropylcellulose) (HPC)
[10] = dose: 50.0 mg/kg/injection, schedule: Q01DX005 (ip), vehicle: Klucel (hydroxypropylcellulose) (HPC)
[11] = dose: 100.0 mg/kg/injection, schedule: Q01DX005 (ip), vehicle: Klucel (hydroxypropylcellulose) (HPC)
[12] = dose: 200.0 mg/kg/injection, schedule: Q01DX005 (ip), vehicle: Klucel (hydroxypropylcellulose) (HPC)
[13] = dose: 60.0 mg/kg/injection, schedule: Q01DX005 (ip), vehicle: Klucel (hydroxypropylcellulose) (HPC)
[14] = dose: 120.0 mg/kg/injection, schedule: Q01DX005 (ip), vehicle: Klucel (hydroxypropylcellulose) (HPC)
[15] = dose: 240.0 mg/kg/injection, schedule: Q01DX005 (ip), vehicle: Klucel (hydroxypropylcellulose) (HPC)

Structure (SMILES): CCn1c(=O)c2[nH]c(Cl)nc2n(CCCOC)c1=O
- T/C (dose: 100.0 mg/kg/injection, schedule: Q04DX002 (ip), vehicle: Klucel (hydroxypropylcellulose) (HPC)): 101 % of control
- T/C (dose: 200.0 mg/kg/injection, schedule: Q04DX002 (ip), vehicle: Klucel (hydroxypropylcellulose) (HPC)): 95 % of control
- T/C (dose: 400.0 mg/kg/injection, schedule: Q04DX002 (ip), vehicle: Klucel (hydroxypropylcellulose) (HPC)): 87 % of control

Structure (SMILES): O=[N+]([O-])c1ccccc1Sc1cccc(Sc2ccccc2[N+](=O)[O-])n1
- T/C [1]: 100 % of control
- T/C [2]: 105 % of control
- T/C [3]: 102 % of control

Structure (SMILES): CC12CCC(=O)N1c1ccccc1N2 (stereo unspecified)
- T/C [1]: 98 % of control
- T/C [2]: 94 % of control
- T/C [3]: 102 % of control

Structure (SMILES): CCOC(=O)CCCCCNC(=S)N1c2c(nc(N)[nH]c2=O)NCC1CNc1ccc(C(=O)NC(CCC(=O)O)C(=O)O)cc1 (stereo unspecified)
- T/C (dose: 100.0 mg/kg/injection, schedule: Q01DX001 (ip), vehicle: sodium bicarbonate): 89 % of control
- T/C (dose: 200.0 mg/kg/injection, schedule: Q01DX001 (ip), vehicle: sodium bicarbonate): 90 % of control
- T/C (dose: 400.0 mg/kg/injection, schedule: Q01DX001 (ip), vehicle: sodium bicarbonate): 92 % of control

Structure (SMILES): Nc1ncc2c(n1)CCCC2
- T/C (dose: 50.0 mg/kg/injection, schedule: Q01DX005 (ip), vehicle: saline with Tween-80): 98 % of control
- T/C (dose: 100.0 mg/kg/injection, schedule: Q01DX005 (ip), vehicle: saline with Tween-80): 98 % of control
- T/C (dose: 200.0 mg/kg/injection, schedule: Q01DX005 (ip), vehicle: saline with Tween-80): 100 % of control

Structure (SMILES): Nc1cc2c(c[n+](CCC[n+]3cc4c5ccccc5c(N)cc4c4ccccc43)c3ccccc23)c2ccccc12
- T/C (dose: 3.13 mg/kg/injection, schedule: Q04DX003 (ip), vehicle: other): 94 % of control
- T/C (dose: 6.25 mg/kg/injection, schedule: Q04DX003 (ip), vehicle: other): 102 % of control
- T/C (dose: 12.5 mg/kg/injection, schedule: Q04DX003 (ip), vehicle: other): 93 % of control
- T/C (dose: 25.0 mg/kg/injection, schedule: Q04DX003 (ip), vehicle: other): 92 % of control
- T/C (dose: 50.0 mg/kg/injection, schedule: Q04DX003 (ip), vehicle: other): 93 % of control
- T/C (dose: 100.0 mg/kg/injection, schedule: Q04DX003 (ip), vehicle: other): 86 % of control

Structure (SMILES): COC(=O)c1nnc2n1-c1ccc(Cl)cc1C(c1ccccc1)=[N+]([O-])C2
- T/C (dose: 50.0 mg/kg/injection, schedule: Q04DX002 (ip), vehicle: saline with Tween-80): 96 % of control
- T/C (dose: 100.0 mg/kg/injection, schedule: Q04DX002 (ip), vehicle: saline with Tween-80): 104 % of control
- T/C (dose: 200.0 mg/kg/injection, schedule: Q04DX002 (ip), vehicle: saline with Tween-80): 99 % of control

Structure (SMILES): COc1cccc(OC)c1OCCN1C(=O)c2ccccc2C1=O
- T/C [4]: 100 % of control
- T/C [5]: 100 % of control
- T/C [6]: 105 % of control

Structure (SMILES): CC(=O)NC#N.CCN(CC)CC.[CH-]1CCCCC1.[CH-]1CCCCC1.[CH-]1CCCCC1.[Cl-].[Sn+4]
- T/C (dose: 3.12 mg/kg/injection, schedule: Q01DX005 (ip), vehicle: saline with Tween-80): 106 % of control
- T/C (dose: 6.25 mg/kg/injection, schedule: Q01DX005 (ip), vehicle: saline with Tween-80): 105 % of control

Structure (SMILES): O=C1NC(Cc2ccccc2)C(=O)N2CSCC12 (stereo unspecified)
- T/C [7]: 94 % of control
- T/C [8]: 99 % of control
- T/C (dose: 400.0 mg/kg/injection, schedule: Q01DX001 (ip), vehicle: Klucel (hydroxypropylcellulose) (HPC)): 105 % of control

Structure (SMILES): COC(=O)c1[nH]cnc1/N=N\N(CCF)CCF
- T/C (dose: 44.0 mg/kg/injection, schedule: Q04DX003 (ip), vehicle: saline with Tween-80): 155 % of control
- T/C (dose: 66.0 mg/kg/injection, schedule: Q04DX003 (ip), vehicle: saline with Tween-80): 110 % of control

Structure (SMILES): C=CC(C)(C)c1[nH]c2ccccc2c1CC1NC(=O)C(C)NC1=O (stereo unspecified)
- T/C (dose: 12.5 mg/kg/injection, schedule: Q01DX009 (ip), vehicle: Klucel (hydroxypropylcellulose) (HPC)): 86 % of control
- T/C [4]: 92 % of control

Structure (SMILES): CSc1c2c([nH]c(=O)c1C#N)-c1ccccc1CC2
- T/C (dose: 30.0 mg/kg/injection, schedule: Q01DX005 (ip), vehicle: saline with Tween-80): 89 % of control
- T/C [1]: 91 % of control
- T/C [2]: 95 % of control and 96 % of control
- T/C [3]: 88 % of control

Structure (SMILES): COc1c(CO)c2c(c(OC)c1OC)-c1ccc(OC)c(=O)cc1[C@@H](NC(C)=O)CC2
- T/C [9]: 160 % of control
- T/C [4]: 185 % of control

Structure (SMILES): COc1ccc(OC)c(/C=C2/C(=O)ON=C2C)c1
- T/C [1]: 114 % of control
- T/C [2]: 111 % of control

Structure (SMILES): Nc1nc2cc([N+](=O)[O-])cnc2s1
- T/C (dose: 100.0 mg/kg/injection, schedule: Q04DX003 (ip), vehicle: Klucel (hydroxypropylcellulose) (HPC)): 103 % of control
- T/C (dose: 200.0 mg/kg/injection, schedule: Q04DX003 (ip), vehicle: Klucel (hydroxypropylcellulose) (HPC)): 101 % of control
- T/C (dose: 400.0 mg/kg/injection, schedule: Q04DX003 (ip), vehicle: Klucel (hydroxypropylcellulose) (HPC)): 100 % of control

Structure (SMILES): CC(/C=C/c1ccccc1)=Nc1ccccc1
- T/C (dose: 50.0 mg/kg/injection, schedule: Q01DX009 (ip), vehicle: saline with Tween-80): 109 % of control and 112 % of control
- T/C (dose: 100.0 mg/kg/injection, schedule: Q01DX009 (ip), vehicle: saline with Tween-80): 114 % of control and 123 % of control
- T/C (dose: 200.0 mg/kg/injection, schedule: Q01DX009 (ip), vehicle: saline with Tween-80): 123 % of control

Structure (SMILES): Cc1ccc(S(=O)(=O)N/N=C2/C=CC3(CC2)CC2C=CC3C2)cc1 (stereo unspecified)
- T/C (dose: 50.0 mg/kg/injection, schedule: Q01DX001 (ip), vehicle: Klucel (hydroxypropylcellulose) (HPC)): 91 % of control
- T/C [7]: 89 % of control
- T/C [8]: 101 % of control

Structure (SMILES): Cc1[nH]c(=O)[nH]c(=O)c1/C=C/C(=O)O
- T/C [9]: 100 % of control
- T/C [4]: 100 % of control
- T/C [5]: 102 % of control
- T/C [6]: 102 % of control

Structure (SMILES): O=C1CSC(=S)N1N1C(=O)CSC1=S
- T/C [4]: 107 % of control
- T/C [5]: 102 % of control
- T/C [6]: 96 % of control

Structure (SMILES): CCCCC(=O)N1SC(NC(=O)OC)=Nc2ccccc21
- T/C [10]: 101 % of control
- T/C [11]: 100 % of control
- T/C [12]: 109 % of control

Structure (SMILES): CC1CCCCN1C(=O)C(c1ccccc1)(c1ccccc1)c1ccccc1 (stereo unspecified)
- T/C [10]: 99 % of control
- T/C [11]: 99 % of control
- T/C [12]: 93 % of control

Structure (SMILES): Cc1nc2cncnc2n(CCN2CCOCC2)c1=O
- T/C [13]: 98 % of control
- T/C [14]: 95 % of control
- T/C [15]: 96 % of control

Structure (SMILES): CC(=O)c1c(O)c(C)c(O)c2c1OC1=CC(=O)C(C(C)=O)C(=O)C12C (stereo unspecified)
- T/C (dose: 6.25 mg/kg/injection, schedule: Q01DX009 (ip), vehicle: saline with Tween-80): 100 % of control and 122 % of control
- T/C (dose: 12.5 mg/kg/injection, schedule: Q01DX009 (ip), vehicle: saline with Tween-80): 115 % of control and 97 % of control
- T/C (dose: 12.5 mg/kg/injection, schedule: Q01DX009 (ip), vehicle: saline): 97 % of control
- T/C (dose: 25.0 mg/kg/injection, schedule: Q01DX009 (ip), vehicle: saline with Tween-80): 101 % of control and 103 % of control (2×)
- T/C (dose: 50.0 mg/kg/injection, schedule: Q01DX009 (ip), vehicle: saline): 109 % of control and 111 % of control

Structure (SMILES): O=C(O)C(Nc1ncnc2c1ncn2C1OC(CO)C(O)C1O)C(F)(F)C(=O)O (stereo unspecified)
- T/C (dose: 100.0 mg/kg/injection, schedule: Q04DX003 (ip), vehicle: saline): 97 % of control
- T/C (dose: 200.0 mg/kg/injection, schedule: Q04DX003 (ip), vehicle: saline): 100 % of control
- T/C (dose: 400.0 mg/kg/injection, schedule: Q04DX003 (ip), vehicle: saline): 99 % of control

Structure (SMILES): NC(=O)Nc1ccc(Cl)cc1[N+](=O)[O-]
- T/C (dose: 37.5 mg/kg/injection, schedule: Q01DX009 (ip), vehicle: Klucel (hydroxypropylcellulose) (HPC)): 99 % of control
- T/C (dose: 75.0 mg/kg/injection, schedule: Q01DX009 (ip), vehicle: Klucel (hydroxypropylcellulose) (HPC)): 98 % of control

Structure (SMILES): Oc1c2ccccc2cc2cnc3ccccc3c12
- T/C [13]: 102 % of control
- T/C [14]: 109 % of control
- T/C [15]: 111 % of control

Structure (SMILES): C=c1[nH]c(=O)c(=C)[nH]c1=O
- T/C (dose: 12.5 mg/kg/injection, schedule: Q01DX009 (ip), vehicle: other): 94 % of control
- T/C (dose: 25.0 mg/kg/injection, schedule: Q01DX009 (ip), vehicle: other): 90 % of control
- T/C (dose: 50.0 mg/kg/injection, schedule: Q01DX009 (ip), vehicle: other): 99 % of control
- T/C (dose: 100.0 mg/kg/injection, schedule: Q01DX009 (ip), vehicle: other): 106 % of control
